Data reported in patent US20230226092A1, “CANCER […] ON G[…]” (NuCana plc, priority 2015, published 2023).

System: advance progressive cancers that are refractory to, or have relapsed on, all conventional therapies
Assay: ProGem1 dose escalation clinical study: clinical response (RECIST 1.1, tumour markers)
Type: in vivo, human
Parameters: CA125 level / CA19.9 / CEA / CA125 / Tumour volume / CA 15.3 tumour marker / inhibin B: unit not given here
Excerpt: The following data were generated in clinical studies of NUC-1031 in human patients with advance progressive cancers that are refractory to, or have relapsed on, all conventional therapies that have been used to date. The results clearly illustrate the ability of NUC-1031 to successfully treat refractory cancers.
Although the primary objectives of the dose escalation part of the study were to determine the Recommended Phase II Dose (RP2D) and safety profile, secondary objectives included determining the PK profile, however effective treatment of patients with a range of refractory cancers has also been observed as part of this study.
A total of 68 patients have been entered into this dose escalation study, of which 49 were evaluable for clinical response in that they have received at least 2 Cycles of NUC-1031 and were therefore eligible for a RECIST 1.1 assessment.
NUC-1031 was administered as a 5 to 30 minute intravenous slow bolus injection. • Schedule A: NUC-1031 was administered on days 1, 8, 15 of a 4 weekly Cycle. • Schedule B: NUC-1031 was administered on days 1, 5, 8, 12, 15, 19, of a 4 weekly Cycle.
Evaluable patients were patients that received ≥ 2 Cycles of NUC-1031 and were therefore eligible for a RECIST 1.1 assessment at the end of Cycle 2. Where the disease response duration, measured in months, is followed by a “+” this indicates ongoing disease control as of the latest cut-off date.

[1] = Patient 004, breast cancer, 500 mg/m^2 weekly
[2] = Patient 005, ovarian cancer, 500 mg/m^2 weekly
[3] = Patient 006, cholangiocarcinoma, 375 mg/m^2 twice weekly, then 500 mg/m^2 weekly
[4] = Patient 008, cancer of unknown primary, 375 mg/m^2 twice weekly
[5] = Patient 010, endometrial cancer
[6] = Patient 015, cancer of unknown primary, ongoing
[7] = Patient 021, fallopian tube cancer
[8] = Patient 025, mesothelioma, 725 mg/m^2 weekly
[9] = Patient 026, colorectal cancer, 725 mg/m^2 weekly
[10] = Patient 029, breast cancer, 725 mg/m^2 weekly
[11] = Patient 030, ovarian cancer, 725 mg/m^2 weekly
[12] = Patient 032, oesophageal cancer, 750 mg/m^2 weekly
[13] = Patient 033, cholangiocarcinoma, 750 mg/m^2 weekly

gemcitabine-[phenyl-benzoxy-L-alaninyl)]-phosphate [NUC-1031]
Disease response duration [1]: 12 months | Response to RECIST [1]: Stable Disease | Remained stable with no further treatment (Patient 004, breast cancer, after Cycle 7): 5 months | Disease response duration [2]: 15 months | Response to RECIST [2]: Stable Disease | Time to relapse after stopping treatment (Patient 005, ovarian cancer, after 12 months of treatment): 3 months | CA125 level (Patient 005, ovarian cancer, end of Cycle 6, from 208 at start of study): 140 | CT scan finding (Patient 006, cholangiocarcinoma): reduction in metastatic lung lesion and lymph node from baseline | Disease response duration [3]: 3 months | Response to RECIST [3]: Stable Disease | CA19.9 (Patient 006, cholangiocarcinoma, after two doses, from 125,002): 59,285 | Disease response duration (Patient 007, colorectal cancer): 3 months | Response to RECIST (Patient 007, colorectal cancer, 375 mg/m^2 twice weekly, then 500 mg/m^2 weekly): Stable Disease | CEA (Patient 007, colorectal cancer, from 361): 286 | CA19.9 (Patient 007, colorectal cancer, from 3,151): 2,957 | Disease response duration [4]: 3 months | Response to RECIST [4]: Stable Disease | Symptomatic benefit (Patient 008, cancer of unknown primary, Cycle 1): symptomatic relief on treatment and a general improvement in mood and wellbeing | Disease response duration [5]: 9 months | Stable Disease maintained after stopping NUC-1031 [5]: 3 months | Response to RECIST (Patient 010, endometrial cancer, 750 mg/m^2 weekly, then 500 mg/m^2): Stable Disease | CA125 (Patient 010, endometrial cancer, from 727): 488 | Disease response duration (Patient 011, uterine carcinosarcoma): 4 months | Reduction in tumour volume (Patient 011, uterine carcinosarcoma, 375 mg/m^2 twice weekly): 26% | Response to RECIST (Patient 011, uterine carcinosarcoma, 375 mg/m^2 twice weekly, then 625 mg/m^2 weekly): Stable Disease | Disease response duration (Patient 012, cholangiocarcinoma): 8 months | Response to RECIST (Patient 012, cholangiocarcinoma, 375 mg/m^2 twice weekly, then 625 mg/m^2 weekly): Stable Disease | Disease response duration (Patient 013, cervical cancer): 9 months | PFS (Patient 013, cervical cancer): 11 months | Response to RECIST (Patient 013, cervical cancer, 750, then 625, then 500 mg/m^2 weekly): Partial Response | Symptomatic benefit (Patient 013, cervical cancer, lower pelvic pain): relief of this pain on treatment, with significant reduction of opioid usage | Response to RECIST (Patient 014, mesothelioma, 750, then 625 mg/m^2 weekly): Progressive Disease | Response to RECIST (Patient 015, cancer of unknown primary, 750, then 625, then 500 mg/m^2 weekly): Partial Response | Reduction in tumour size (Patient 015, cancer of unknown primary, CT scan 9th January 2015): ~58% | Symptomatic benefit (Patient 015, cancer of unknown primary, following Cycle 1): the oedema and ascites had gone | Disease response duration [6]: ≥ 20 months | PFS [6]: ≥ 24 months | Disease response duration (Patient 017, lung cancer): 3 months | PFS (Patient 017, lung cancer): 10 months | Symptomatic benefit (Patient 017, lung cancer): improvement in hoarse voice and dysphagia | Response to RECIST (Patient 017, lung cancer (adenocarcinoma), 750, then 625 mg/m^2 weekly): Partial Response | Response to RECIST (Patient 018, lung cancer (squamous cell), 625 mg/m^2 weekly): Stable Disease | Disease response duration (Patient 018, lung cancer, 625 mg/m^2 weekly): 4 months | Response duration according to GCIG criteria [7]: 9 months | Response duration according to RECIST [7]: 3 months | Symptomatic benefit [7]: significant reduction in abdominal ascites | Best overall response (Patient 021, fallopian tube cancer, 625 mg/m^2 weekly): Partial Response | CA125 reduction from baseline (Patient 021, fallopian tube cancer, end of Cycle 6): 91% | CA125 (Patient 021, fallopian tube cancer, end of Cycle 6, baseline 372): 35 | Response to RECIST (Patient 024, cancer of unknown primary, 675 mg/m^2 weekly): Progressive Disease | Disease response duration [8]: 4 months | Response to RECIST [8]: Stable Disease | Symptomatic benefit (Patient 026, colorectal cancer): Significant improvement in pain, with dramatic reduction in use of opioid analgesia | Disease response duration [9]: 4 months | Response to RECIST [9]: Stable Disease | Disease response duration (Patient 027, ovarian cancer): 8 months | Reduction in tumour volume (Patient 027, ovarian cancer): 23% | Response to RECIST (Patient 027, ovarian cancer, 725, then 675, then 625 mg/m^2 weekly): Stable Disease | CA125 (Patient 027, ovarian cancer, end of Cycle 6, from 188 at baseline): 99 | Disease response duration [10]: 4 months | Response to RECIST [10]: Stable Disease | Disease response duration [11]: 3 months | Response to RECIST [11]: Stable Disease | Response (end of Cycle 2 CT scan) (Patient 031, cholangiocarcinoma, 750 mg/m^2 weekly): Progressive Disease | Disease response duration [12]: 2 months | Response to RECIST [12]: Stable Disease | Disease response duration [13]: 3 months | Response to RECIST [13]: Stable Disease | Disease response duration (Patient 036, renal carcinoma): 5 months | Response to RECIST (Patient 036, renal carcinoma, 825, then 750 mg/m^2 weekly): Stable Disease | Reduction in tumour volume (Patient 036, renal carcinoma, end of Cycle 4 CT scan): 7% | Disease response duration (Patient 037, pancreatic cancer): 1 month | PFS (Patient 037, pancreatic cancer): 4 months | Symptomatic benefit (Patient 037, pancreatic cancer): Pain in abdomen and back had significantly improved | Response to RECIST (Patient 037, pancreatic cancer, 1,000, then 900 mg/m^2 weekly): Partial Response
